Here are results for 7 molecules from BindingDB's records for doi:10.1021/jm00391a032 (1987).

pIC50: −log10 of the molar value.

The experiment addresses Beta-lactamase/penicillinase (Bacillus sp.). As to the kind of experiment: Inhibitory activity against Beta-lactamase from Bacillus sp. using penicillin G as substrate.

In general, pIC50 refers to the negative decadic logarithm of the IC50, by convention in mol/L. Read a high pIC50 as a low IC50. Turning to `C[C@]1(Cn2cc(N)nn2)[C@H](C(=O)O)C2C(=O)CC2S1(=O)=O` (some centres not stated), the negative-log IC50 (pIC50) was 6.15.

Molecule `COC(=O)c1nnn(C[C@@]2(C)[C@H](C(=O)O)C3C(=O)CC3S2(=O)=O)c1C(=O)OC` (some centres not stated) gave a pIC50 of 6.52.

Molecule `CCOC(=O)c1cn(C[C@@]2(C)[C@H](C(=O)O)C3C(=O)CC3S2(=O)=O)nn1` (some centres not stated) gave a pIC50 of 7.27. `COC(=O)c1cnnn1C[C@@]1(C)[C@H](C(=O)O)C2C(=O)CC2S1(=O)=O` (some centres not stated) showed a pIC50 of 6.52.

On to `C[C@]1(Cn2nncc2C(=O)O)[C@H](C(=O)O)C2C(=O)CC2S1(=O)=O` (some centres not stated), for which the negative-log IC50 (pIC50) was 5.77. Compared with the last molecule, the pIC50 is 0.75 log units lower. As to `C[C@]1(Cn2cc([Si](C)(C)C)nn2)[C@H](C(=O)O)C2C(=O)CC2S1(=O)=O` (some centres not stated), the pIC50 is 6.29. With `CCOC(=O)c1cnnn1C[C@@]1(C)[C@H](C(=O)O)C2C(=O)CC2S1(=O)=O` (some centres not stated), the pIC50 is 6.47.
